Data: ChEMBL document CHEMBL3393053, “Synthesis and biological evaluation of isoindoloisoquinolinone, pyroloisoquinolinone and benzoquinazolinone derivatives as poly(ADP-ribose) polymerase-1 inhibitors” (Bioorg Med Chem, 2015)

Key:
[1] = (§1) Antioxidant activity against H2O2-induced oxidative stress in chicken RBC assessed as superoxide dismutase activity by measuring pyrogallol oxidization per mg protein pre-incubated at 75 uM followed by H2O2 addition by UV spectroscopy (reference value: 11.32 +/- 1.96 pyrogallol oxidized/min/mg of protein); format: functional, Gallus gallus, Erythrocyte
[2] = Antioxidant activity against H2O2-induced oxidative stress in chicken RBC assessed as catalase activity by measuring H2O2 utilization per mg protein pre-incubated at 50 uM followed by H2O2 addition by UV spectroscopy (reference value: 15.97 +/- 2.12 nmol of H2O2 utilized/min/mg of protein); format: functional, Gallus gallus, Erythrocyte
[3] = Antioxidant activity against H2O2-induced oxidative stress in chicken RBC assessed as catalase activity by measuring H2O2 utilization per mg protein pre-incubated at 100 uM followed by H2O2 addition by UV spectroscopy (reference value: 15.97 +/- 2.12 nmol of H2O2 utilized/min/mg of protein); format: functional, Gallus gallus, Erythrocyte
Erythrocyte [4] = test: Cytoprotective activity against H2O2-induced genomic DNA damage in chicken RBC assessed as DNA level in comet tail region pre-incubated at 100 uM followed by H2O2 addition by single cell alkaline gel electrophoresis and fluorescent microscopy based comet assay (reference value: 45.78 +/- 3.24%); format: functional, Gallus gallus
[5] = as §1, with “100” for “75”; format: functional, Gallus gallus, Erythrocyte
[6] = Toxicity against chicken RBC assessed as effect on cell viability at 25 to 100 uM by acridine orange and ethidium bromide staining method; format: cell-based, Gallus gallus; settings: erythrocyte
[7] = as §1, with “25” for “75”; format: functional, Gallus gallus, Erythrocyte
[8] = (§2) Antioxidant activity against H2O2-induced oxidative stress in chicken RBC assessed as lipid peroxidation level by measuring malondialdehyde formation per mg protein pre-incubated at 75 uM followed by H2O2 addition by UV spectroscopy (reference value: 84.32 +/- 12.04 nmol malondialdehyde formed/mg protein); format: functional, Gallus gallus, Erythrocyte
[9] = Cytoprotective activity against H2O2-induced cytotoxicity in chicken RBC assessed as cell viability pre-incubated at 100 uM followed by H2O2 addition by acridine orange and ethidium bromide staining method (reference value: 41 +/- 2.08%); format: functional; settings: Gallus gallus, Erythrocyte; read-out: Activity
[10] = as §1, with “50” for “75”; format: functional, Gallus gallus, Erythrocyte
[11] = as §2, with “100” for “75”; format: functional, Gallus gallus, Erythrocyte
[12] = as §2, with “50” for “75”; format: functional, Gallus gallus, Erythrocyte
[13] = as §2, with “25” for “75”; format: functional, Gallus gallus, Erythrocyte
Erythrocyte [14] = test: Cytoprotective activity against H2O2-induced genomic DNA damage in chicken RBC assessed as DNA level in comet head region pre-incubated at 100 uM followed by H2O2 addition by single cell alkaline gel electrophoresis and fluorescent microscopy based comet assay (reference value: 52.23 +/- 3.98%); format: functional, Gallus gallus
[15] = Antioxidant activity against H2O2-induced oxidative stress in chicken RBC assessed as catalase activity by measuring H2O2 utilization per mg protein pre-incubated at 75 uM followed by H2O2 addition by UV spectroscopy (reference value: 15.97 +/- 2.12 nmol of H2O2 utilized/min/mg of protein); format: functional, Gallus gallus, Erythrocyte
[16] = Antioxidant activity against H2O2-induced oxidative stress in chicken RBC assessed as catalase activity by measuring H2O2 utilization per mg protein pre-incubated at 25 uM followed by H2O2 addition by UV spectroscopy (reference value: 15.97 +/- 2.12 nmol of H2O2 utilized/min/mg of protein); format: functional, Gallus gallus, Erythrocyte
[17] = molecular target: Poly [ADP-ribose] polymerase 1 (Homo sapiens, UniProt P09874); test: Inhibition of PARP1 (unknown origin) in presence of NAD+ by homogenous fluorescence plate assay
Chain of Poly [ADP-ribose] polymerase 1 (P09874 whole entry): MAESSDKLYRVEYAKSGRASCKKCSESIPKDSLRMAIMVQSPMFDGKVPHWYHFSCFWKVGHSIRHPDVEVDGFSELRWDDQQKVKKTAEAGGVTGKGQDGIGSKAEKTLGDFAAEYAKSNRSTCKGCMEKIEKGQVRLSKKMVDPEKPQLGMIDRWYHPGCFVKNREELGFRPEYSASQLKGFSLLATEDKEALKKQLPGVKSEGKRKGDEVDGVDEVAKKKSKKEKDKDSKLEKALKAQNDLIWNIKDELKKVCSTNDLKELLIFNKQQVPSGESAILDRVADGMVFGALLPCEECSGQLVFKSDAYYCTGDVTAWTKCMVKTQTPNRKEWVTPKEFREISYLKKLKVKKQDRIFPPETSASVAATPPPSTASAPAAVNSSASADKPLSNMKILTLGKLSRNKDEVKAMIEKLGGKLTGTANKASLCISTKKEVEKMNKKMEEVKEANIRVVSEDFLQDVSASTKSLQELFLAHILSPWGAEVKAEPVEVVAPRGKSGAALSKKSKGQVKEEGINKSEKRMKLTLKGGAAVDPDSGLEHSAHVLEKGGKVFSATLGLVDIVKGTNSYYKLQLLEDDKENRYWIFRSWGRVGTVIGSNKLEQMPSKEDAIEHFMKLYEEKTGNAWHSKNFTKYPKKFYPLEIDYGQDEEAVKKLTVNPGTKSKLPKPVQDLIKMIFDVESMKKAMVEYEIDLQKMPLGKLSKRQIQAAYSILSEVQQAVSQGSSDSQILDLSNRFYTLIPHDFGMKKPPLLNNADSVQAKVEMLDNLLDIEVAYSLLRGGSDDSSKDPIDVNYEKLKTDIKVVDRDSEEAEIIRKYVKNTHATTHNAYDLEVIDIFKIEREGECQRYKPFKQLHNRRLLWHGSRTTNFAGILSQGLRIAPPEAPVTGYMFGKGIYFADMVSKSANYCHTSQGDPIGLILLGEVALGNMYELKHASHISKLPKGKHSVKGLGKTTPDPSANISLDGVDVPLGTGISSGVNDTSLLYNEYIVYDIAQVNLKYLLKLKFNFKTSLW

IC50 [17] | SMILES | Activity [1] | Activity [2] | Activity [3] | Activity (Erythrocyte [4]) | Activity [5] | Activity [6] | Activity [7] | Activity [8] | viability at 100 µM [9] | Activity [10] | Activity [11] | Activity [12] | Activity [13] | Activity (Erythrocyte [14]) | Activity [15] | Activity [16]
 | COc1ccc2c(c1OC)CCN1C(=O)c3ccccc3C21O (stereo unspecified) | 15.54 µmol/min | 16.25 nmol/min/mg | 16.37 nmol/min/mg protein | 42.97% | 18.13 µmol/min | Non-toxic | 13.19 µmol/min | 41.21 nmol/mg protein | 65.6% | 15.96 µmol/min | 48.32 nmol/mg protein | 46.37 nmol/mg protein | 53.65 nmol/mg protein | 56.64% | 16.46 nmol/min/mg | 15.31 nmol/min/mg
 | COc1cc2c(cc1O)C1(O)c3ccccc3C(=O)N1CC2 (stereo unspecified) | 28.863 µmol/min | 51.49 nmol/min/mg | 70.66 nmol/min/mg protein | 7.34% | 30.94 µmol/min | Non-toxic | 18.616 µmol/min | 26.35 nmol/mg protein | 93.6% | 21.63 µmol/min | 15.02 nmol/mg protein | 47.15 nmol/mg protein | 52.71 nmol/mg protein | 92.3% | 62.57 nmol/min/mg | 29.52 nmol/min/mg
 | COc1cc2c(cc1OC)C1(O)c3ccccc3C(=O)N1CC2 (stereo unspecified) | 23.98 µmol/min | 43.65 nmol/min/mg | 64.87 nmol/min/mg protein | 34.44% | 28.45 µmol/min | Non-toxic | 17.34 µmol/min | 16.54 nmol/mg protein | 79.3% | 19.35 µmol/min | 18.32 nmol/mg protein | 29.27 nmol/mg protein | 38.46 nmol/mg protein | 65.56% | 48.43 nmol/min/mg | 26.54 nmol/min/mg
 | O=C1c2ccccc2C2(O)c3ccc(Br)cc3CCN12 (stereo unspecified) | 17.51 µmol/min | 51.14 nmol/min/mg | 65.007 nmol/min/mg protein | 4.55% | 21.58 µmol/min | Non-toxic | 12.8667 µmol/min | 34.52 nmol/mg protein | 75.3% | 14.05 µmol/min | 16.75 nmol/mg protein | 54.24 nmol/mg protein | 70.74 nmol/mg protein | 94.32% | 56.05 nmol/min/mg | 36.597 nmol/min/mg
53.2 nM | O=C1NCCc2c(OCCCCN3CCCCC3)cccc21 |  |  |  |  |  |  |  |  |  |  |  |  |  |  |  | 
 | COc1ccc2c(c1OC)CCN1C(=O)CCCC21 (stereo unspecified) | 11.95 µmol/min | 25.95 nmol/min/mg | 31.43 nmol/min/mg protein | 9.75% | 12.98 µmol/min | Non-toxic | 11.76 µmol/min | 48.23 nmol/mg protein | 86.6% | 11.48 µmol/min | 49.54 nmol/mg protein | 54.23 nmol/mg protein | 61.45 nmol/mg protein | 73.84% | 28.47 nmol/min/mg | 17.36 nmol/min/mg
 | COc1ccc2c(c1)CCN1C(=O)c3ccccc3C21O (stereo unspecified) | 11.48 µmol/min | 16.25 nmol/min/mg | 16.37 nmol/min/mg protein | 41.96% | 11.37 µmol/min | Non-toxic | 12.65 µmol/min | 48.12 nmol/mg protein | 53.6% | 11.87 µmol/min | 42.14 nmol/mg protein | 56.32 nmol/mg protein | 62.98 nmol/mg protein | 57.29% | 16.46 nmol/min/mg | 15.31 nmol/min/mg
 | COc1cc2c(c(OC)c1)C1CCC(=O)N1CC2 (stereo unspecified) | 24.35 µmol/min | 46.35 nmol/min/mg | 70.43 nmol/min/mg protein | 45.8% | 29.34 µmol/min | Non-toxic | 17.23 µmol/min | 16.87 nmol/mg protein | 68.3% | 19.43 µmol/min | 16.14 nmol/mg protein | 19.12 nmol/mg protein | 28.38 nmol/mg protein | 54.2% | 58.28 nmol/min/mg | 38.65 nmol/min/mg
 | Cc1ccc2c(c1)CCN1C(=O)c3ccccc3C21O (stereo unspecified) | 15.08 µmol/min | 50.35 nmol/min/mg | 65.35 nmol/min/mg protein | 11.44% | 18.6 µmol/min | Non-toxic | 11.51 µmol/min | 26.52 nmol/mg protein | 82.3% | 14.56 µmol/min | 16.95 nmol/mg protein | 43.76 nmol/mg protein | 53.66 nmol/mg protein | 87.56% | 54.56 nmol/min/mg | 31.71 nmol/min/mg
 | COc1cc2c(cc1OC)C1(O)C3C4c5ccccc5C(c5ccccc54)C3C(=O)N1CC2 (stereo unspecified) | 23.58 µmol/min | 55.89 nmol/min/mg | 67.91 nmol/min/mg protein | 16.55% | 27.87 µmol/min | Non-toxic | 15.86 µmol/min | 24.44 nmol/mg protein | 87.3% | 19.63 µmol/min | 18.1 nmol/mg protein | 35.6 nmol/mg protein | 51.48 nmol/mg protein | 82.45% | 65.12 nmol/min/mg | 46.11 nmol/min/mg
 | COc1ccc(OC)c2c1CCN1C(=O)c3ccccc3C21O (stereo unspecified) | 23.76 µmol/min | 31.76 nmol/min/mg | 68.46 nmol/min/mg protein | 8.55% | 27.76 µmol/min | Non-toxic | 16.32 µmol/min | 14.24 nmol/mg protein | 72% | 19.24 µmol/min | 20.14 nmol/mg protein | 28.21 nmol/mg protein | 36.23 nmol/mg protein | 90.45% | 47.53 nmol/min/mg | 23.65 nmol/min/mg
